Source: PMC8175350, “Drug repurposing screens identify chemical entities for the development of COVID-19 interventions” (Nature Communications, 2021)
Several values for one entry are separate records, joined by “and”; a condition that tells them apart may be missing. Equal values may be shown once. Read-outs that look alike come from different tables or passages of the source.

Legend:
[1] = test system: Calu-3 cells; assay: Uninfected Calu-3 48 h Cell-Titer Glo cytotoxicity counter screen
[2] = test system: Calu-3 cells; assay: cells; settings: Homo sapiens
[3] = test system: HeLa-ACE2 cells; assay: Total cell count in the HeLa-ACE2 TOA assay; type: cell-based; settings: Homo sapiens
Excerpt: Supplement 41467_2021_23328_MOESM3_ESM.xlsx, sheet "Table S1" | column: HeLa-ACE2 TOA cell count

[4] = in vitro; settings: human
[5] = test system: SARS-CoV-2; assay: microbe, parasite or virus in culture; type: cell-based; settings: for SARS-CoV-2 % infected cells: 10 µM after 1 h infection; for TOA: HeLa-ACE2, replicate wells n=1-3
[6] = test system: SARS-CoV-2; assay: microbe, parasite or virus in culture; type: cell-based; settings: for %infected: replicate wells n=1-3
[7] = test system: COVID-19; settings: shortened from 15; ref [7]; cited from earlier work
[8] = test system: HeLa-ACE2 cells; assay: cells; settings: Homo sapiens
[9] = test system: COVID-19; settings: ref [9]; cited from earlier work
[10] = test system: SARS-CoV-2; assay: microbe, parasite or virus in culture; type: cell-based; settings: for %infected: Calu-3, replicate wells n=1-3; for EC50: read-out: Calu-3 SARS-CoV-2 EC50
[11] = test system: HeLa-ACE2 cells; assay: Uninfected HeLa-ACE2 24 h live/dead cytotoxicity counter screen; type: cell-based, human; settings: for cytotox: HeLa-ACE2, replicate wells n=1-3
[12] = as above; type: cell-based, human; settings: human, uninfected HeLa-ACE2 cells
[13] = test system: SARS-CoV-2; type: cell-based
[14] = curve plateau at infinite concentration

## CCC(CC)COC(=O)[C@H](C)N[P@](=O)(OC[C@H]1O[C@@](C#N)(c2ccc3c(N)ncnn23)[C@H](O)[C@@H]1O)Oc1ccccc1 [Remdesivir]
[1]; Calu-3, concentration log[M] -5, replicate wells n=1-3
  cytotox: 10.3923 and -8.975 and 0.952 and 18.306 and 7.959 and -3.54 and 10.6309 and -10.2579 and 5.131
[1]; [14]
  Calu-3 uninfected cytotoxicity Sinf Average: -95%
[2]; Calu-3, 48 h, read-out: Calu-3 cell count Sinf Average
  Emax: 103%
[2]; Calu-3, read-out: Calu-3 cell count EC50 GeoMean
  EC50: 700 nM
[2]; Calu-3, read-out: cell count EC50, Calu-3, geomean, ^↑ = increasing dose-response curve
  EC50: 537 nM
[3]; HeLa-ACE2, 10 h, curve plateau at infinite concentration, read-out: HeLa-ACE2 TOA cell count Sinf Average
  Emax: 100%
[3]; HeLa-ACE2, read-out: HeLa-ACE2 TOA cell count EC50 GeoMean
  EC50: > 9610 nM
[4]; Calu-3 Uninf. cells CC50 (µM), reconfirmed hits
  CC50: > 30 µM
[4]; Calu-3 Uninf. cells CC50 (µM), value in brackets*: remdesivir control
  CC50: > 30 µM
[4]; Calu-3 uninfected cytotoxicity CC50 GeoMean
  CC50: > 29.9 µM
[4]; cytotoxicity CC50, uninfected Calu-3, geomean
  CC50: > 30 µM
[5]; 4:00:00 post infection
  SARS-CoV-2 % infected cells: 0.0558% and 0.1777% and 0.2107%
[5]; 5:00:00
  SARS-CoV-2 % infected cells: 0.7242% and 1.236% and 0.5657%
[5]; 6:00:00
  SARS-CoV-2 % infected cells: 1.289% and 0.8606%
[5]; 7:00:00
  SARS-CoV-2 % infected cells: 0.8435% and 0.9162%
[5]; 8:00:00
  SARS-CoV-2 % infected cells: 1.114% and 1.68%
[5]; 10:00:00
  SARS-CoV-2 % infected cells: 1.9707% and 2.635%
[5]; 11:00:00
  SARS-CoV-2 % infected cells: 2.255% and 2.403%
[5]; 12:00:00
  SARS-CoV-2 % infected cells: 4.554%
[5]; 24:00:00
  SARS-CoV-2 % infected cells: 1.211% and 0.9586%
[5]; HeLa-ACE2, 10 µM
  activity when treatment was initiated at 1 hpi: effectively blocked the infection
[5]; concentration log[M] -5.61909
  TOA: -92.6138 and -80.8583 and -88.199 and -76.7514 and -93.5448 and -83.4805 and -80.3661 and -74.8437 and -99.8898
[5]; concentration log[M] -6.09621
  TOA: -68.7737 and -49.7255 and -48.7992 and -40.2692 and -44.1304 and -40.198 and -47.0122 and -58.4412 and -51.4261
[5]; concentration log[M] -6.57334
  TOA: -20.3161 and -18.1481 and -10.1709 and -1.508 and -0.9303 and -16.8539 and -5.25 and -7.77
[5]; concentration log[M] -7.05046
  TOA: -7.493 and -17.8403 and -13.1433 and -19.1912 and -3.289 and -5.355 and 2.9336 and -2.419
[5]; concentration log[M] -7.52758
  TOA: -5.952 and 2.422 and 1.456 and -1.724 and -2.397 and 2.2617 and 7.029 and -1.667 and -1.15
[5]; concentration log[M] -8.0047
  TOA: 5.958 and 5.629 and 3.068 and -1.8321 and 3.442 and 6.226 and 7.961 and 4.025 and 11.376
[5]; concentration log[M] -8.48182
  TOA: 4.28 and 10.7449 and 12.4349 and -4.585 and 4.364 and -1.184 and 4.823 and 5.851 and -1.616
[5]; concentration log[M] -8.95894
  TOA: -2.286 and -0.1755 and 11.8345 and -1.884 and 3.08 and 1.621 and -5.04 and -0.06688 and -11.3351
[5]; Severe acute respiratory syndrome coronavirus 2, HeLa-ACE2, 10 h, curve plateau at infinite concentration, read-out: HeLa-ACE2 TOA CoV-2 Sinf Average
  Emax: 102%
[5]; Severe acute respiratory syndrome coronavirus 2, HeLa-ACE2, read-out: HeLa-ACE2 TOA CoV-2 EC50 GeoMean
  EC50: 795 nM
[5]; Severe acute respiratory syndrome coronavirus 2, HeLa-ACE2, fixed 10 hpi, geomean, read-out: CoV-2 TOA EC50
  EC50: 770 nM
[6]; HeLa-ACE2
  increase in EC50 from MOI = 0.09 to MOI = 2.2: 2.7 fold
[6]; HeLa-ACE2, individual values of 9 independent experiments, read-out: EC50 (µM), Fig 1c
  EC50: 191 nM and 83 nM and 141 nM and 130 nM and 138 nM (2×)
[6]; HeLa-ACE2, concentration log[M] -5.61909
  %infected: -99.4999% and -95.8005% and -94.7545% and -97.535% and -100.056% and -100.005% and -100.014% and -99.12% and -100%
[6]; HeLa-ACE2, concentration log[M] -6.09621
  %infected: -99.2124% and -98.9733% and -96.3176% and -99.76% and -100.229% and -100.013%
[6]; HeLa-ACE2, concentration log[M] -8.48182
  %infected: 18.582% and -4.2719% and -2.02% and 15.6179% and -5.577% and 7.137% and 7.4% and 8.398% and -2.488%
[6]; HeLa-ACE2, concentration log[M] -8.95894
  %infected: 3.102% and 6.636% and 1.634% and -11.6076% and 6.069% and -5.672% and -8.653%
[6]; Severe acute respiratory syndrome coronavirus 2, HeLa-ACE2, 24 h, curve plateau at infinite concentration, read-out: HeLa-ACE2 CoV-2 Sinf Average
  Emax: 100%
[6]; Severe acute respiratory syndrome coronavirus 2, HeLa-ACE2, HeLa-ACE2, MOI 0.51, read-out: EC50
  EC50: 126 nM
[6]; Severe acute respiratory syndrome coronavirus 2, HeLa-ACE2, HeLa-ACE2, MOI 1.1, read-out: EC50
  EC50: 145 nM
[6]; Severe acute respiratory syndrome coronavirus 2, HeLa-ACE2, HeLa-ACE2, MOI 2.2, read-out: EC50
  EC50: 223 nM
[6]; Severe acute respiratory syndrome coronavirus 2, HeLa-ACE2, reconfirmed hits, read-out: HeLa-ACE2 SARS-CoV-2 EC50
  EC50: 127 nM
[6]; Severe acute respiratory syndrome coronavirus 2, HeLa-ACE2, value in brackets*: remdesivir control, read-out: HeLa-ACE2 SARS-CoV-2 EC50
  EC50: 123 nM
[7]
  median time to recovery: 11 days
[8]; HeLa-ACE2, 24 h, read-out: HeLa-ACE2 cell count Sinf Average
  Emax: 100%
[8]; HeLa-ACE2, read-out: HeLa-ACE2 cell count EC50 GeoMean
  EC50: > 9600 nM
[8]; HeLa-ACE2, read-out: cell count in infection assay EC50, HeLa-ACE2, geomean, ^↑ = increasing dose-response curve
  EC50: > 1200 nM
[9]
  mortality of hospitalized COVID-19 patients: failed to reduce mortality
[10]; concentration log[M] -5
  %infected: -100% and -99.897% and -100.088% and -98.7564% and -99.5799% and -100.046% and -100.098% and -100.338% and -99.9472%
[10]; concentration log[M] -5.47712
  %infected: -99.1601% and -98.4923% and -99.234% and -99.2295% and -99.4568% and -99.7507% and -99.3361% and -99.5394% and -98.7541%
[10]; concentration log[M] -5.95424
  %infected: -89.5337% and -93.208% and -92.5628% and -91.8668% and -95.3312% and -93.4282% and -90.0849% and -90.1886% and -82.0673%
[10]; concentration log[M] -6.43136
  %infected: -39.9603% and -66.0539% and -61.9632% and -57.8703% and -42.505% and -37.1362% and -41.0562% and -18.9015% and -48.5538%
[10]; concentration log[M] -6.90849
  %infected: 15.313% and 14.726% and -3.639% and 30.6752% and -6.396% and 10.9651% and -1.713% and -1.879%
[10]; concentration log[M] -7.38561
  %infected: 1.995% and -3.779% and 16.4097% and -7.2105% and 10.833% and 28.7058% and 9.608% and 17.5254%
[10]; concentration log[M] -7.86273
  %infected: 12.1902% and -3.292% and 25.9949% and 14.3562% and 4.371% and -33.8895% and 13.327% and 8.365% and 21.3189%
[10]; concentration log[M] -8.33985
  %infected: -5.4528% and 0% and -9.776% and -9.382% and 5.183% and 10.3172% and 15.4186% and 28.7222%
[10]; Severe acute respiratory syndrome coronavirus 2, Calu-3, 48 h, curve plateau at infinite concentration, read-out: Calu-3 CoV-2 Sinf Average
  Emax: 102%
[10]; Severe acute respiratory syndrome coronavirus 2, Calu-3, reconfirmed hits
  EC50: 606 nM
[10]; Severe acute respiratory syndrome coronavirus 2, Calu-3, value in brackets*: remdesivir control
  EC50: 444 nM
[11]; concentration log[M] -5
  cytotox: -48.6076 and -58.6844 and -51.3625 and -48.213 and -50.9294 and -56.7143 and -47.8141 and -43.3369 and -36.9299
[11]; concentration log[M] -5.47712
  cytotox: -19.1561 and -17.8418 and -30.9661 and -14.3691 and -23.5688 and -36.4286 and -15.3846 and -28.169 and -29.0323
[11]; concentration log[M] -5.95424
  cytotox: 6.751 and 11.4789 and 9.414 and -2.699 and 2.9 and 4.429 and 8.301 and 5.85 and 4.672
[11]; concentration log[M] -6.43136
  cytotox: -5.57 and 5.718 and -0.9083 and 5.1787 and 2.305 and -8.143 and -9.851 and -10.8342 and 4.561
[11]; concentration log[M] -6.90849
  cytotox: 2.8692 and 11.5649 and -1.239 and 5.033 and 15.0929 and 0 and 8.342
[11]; concentration log[M] -7.38561
  cytotox: -3.882 and -2.966 and 0.578 and 12.6185 and 0.223 and 8.571 and 4.759 and -6.934 and 4.338
[11]; concentration log[M] -7.86273
  cytotox: 4.3038 and -8.727 and 10.4046 and -9.847 and -4.535 and -6.857 and 3.25 and -6.674
[11]; concentration log[M] -8.33985
  cytotox: 0.2532 and 0.129 and -1.817 and 2.115 and -17.6208 and -2.857 and -8.744 and 4.117 and 1.669
[11]; [14]
  HeLa-ACE2 uninfected cytotoxicity Sinf Average: -86%
[12]; geomean, read-out: uninfected HeLa-ACE2 cytotoxicity CC50
  CC50 at 24 h: > 9670 nM
[12]; reconfirmed hits, read-out: HeLa-ACE2 Uninf. cells CC50
  CC50 at 24 h: 9970 nM
[12]; value in brackets*: remdesivir control, read-out: HeLa-ACE2 Uninf. cells CC50
  CC50 at 24 h: 9670 nM
[12]; read-out: HeLa-ACE2 uninfected cytotoxicity CC50 GeoMean
  CC50 at 24 h: 9970 nM
[13]
  effect on viral replication in ALI-HBECs: inhibited viral replication
